These are literature values, as cited in US20260284233A1, “IMAGING METHODS AND AGENTS FOR GRADING AND STAGING AND SUBSEQUENT TREATMENT OF PROSTATE CANCER IN A PATIENT” (Progenics Pharmaceuticals, Inc., priority 2023, published 2026).

Series [1] has as its system extracellular domain of PSMA.
The conditions of series [2]: 333 MBq (9 mCi) dose; data from clinical trials; compared with commonly used tracers for oncologic imaging.

Regarding `O=C(O)CC[C@H](NC(=O)N[C@@H](CCCCNC(=O)c1ccc([18F])nc1)C(=O)O)C(=O)O` [piflufolastat F18], in series [1], the “binding affinity to the extracellular domain of PSMA” value is recorded as “high affinity”. Moreover, the “mean effective radiation dose to the whole body” value in series [2] was “lower than commonly used tracers for oncologic imaging”.
